Assay results published in patent US20080038357A1, “Inhalation Powder Containing the CGRP antagonist BIBN4096 and Process for the Preparation Thereof” (priority 2002, published 2008).

What was measured:
[1] = Bioavailability after administration by inhalation; details: in vivo, inhaled or intranasal; administered by inhalation as spherically nanostructured microparticles; based on the fine fraction of the formulation (FPD, USP 24 Suppl. 2000)
[2] = Stability of the amorphous state of the microparticles; assay type: physicochemical; details: normal conditions (T<50° C., relative humidity <75%)
[3] = conventional preparations; cited from earlier work

In the case of NCCCC[C@H](NC(=O)[C@@H](Cc1cc(Br)c(O)c(Br)c1)NC(=O)N1CCC(N2Cc3ccccc3NC2=O)CC1)C(=O)N1CCN(c2ccncc2)CC1 [BIBN4096, 1-[N^2-[3,5-dibromo-N-[[4-(3,4-dihydro-2(1H)-oxoquinazolin-3-yl)-1-piperidinyl]carbonyl]-D-tyrosyl]-L-lysyl]-4-(4-pyridinyl)-piperazine], the bioavailability [1] is given as about 60%, the “stability of amorphous state” value [2] is given as “stable in their amorphous state” and the “bioavailability by oral route” value [3] is given as “only limited bioavailability by oral route”.
